US20070179135A1 (priority 2006, published 2007)
In brackets after ≈: the same amount, converted by molar mass. Like-named read-outs stand apart in the source and are kept apart here.

How the values were obtained:
HIV-1 [1] = assay: microbe, parasite or virus in culture; settings: Human immunodeficiency virus 1, PBMC, 168 h, read-out: IC50 (50% inhibition of virus replication)
Experimental: (§5) PBMC Isolation and Blasting. Peripheral blood mononuclear cells (PBMC) obtained from healthy HIV- and hepatitis-negative patients were washed to remove residual gradient separation material. The washed cells were then counted, and their viability assessed. Following this initial preparation, the cells are suspended in RPMI 1640 medium supplemented with 15% inactivated fetal bovine serum, 2 nM L-glutamine, 100 U/ml penicillin, 100 μg/ml streptomycin, and 10 μg/ml gentamycin with 2 μg/ml PHA at 1×10^6 cells/ml. Following a 2 to 3 day incubation (37° C., 5% CO2), the cells were collected by centrifugation, washed, and resuspended in the same medium, supplemented with recombinant IL-2. The cultures were then maintained until use by ½ volume change with fresh IL-12 containing medium every 3 days.
(§6) PBMC Assay. When ready for use, PBMCs from a minimum of two donors that have been blasted with PHA and IL-1 were mixed, counted, and viability determined by trypan blue exclusion. The cells were then resuspended in […] cells/ml in RPMI 1640 supplemented with 15% fetal bovine serum (heat inactivated), 2 mM L-glutamine, 100 U/ml penicillin, 100 μg/ml streptomycin, 10 μg/ml gentamycin and IL-2 (20 U/ml). 50 tl of cells were then distributed to the inner 60 wells of a 96 well plate. Each plate contains cell control wells (cells only), virus control wells (cells plus virus), drug toxicity control wells (cells plus test compound), drug colorimetric control wells (drug only) as well as experimental wells (drug plus cells plus virus). Diluted compounds were then added to the microliter plate followed by the appropriate pre-titered strain of HIV-1. All samples were assayed in triplicate with a sister plate for the determination of compound toxicity. The final volume per well was 200 μl. The assay was incubated for 7 days at 37° C., 5% CO2, after which supernatants were collected for analysis of RT activity and sister plates for assessment of cell viability.
(§7) Reverse Transcriptase Assay. HIV reverse transcriptase was measured in cell free supernatants. Titrated TTP was resuspended in distilled H2O at 5 Ci/ml. Poly rA and oligo dT were prepared as a stock solution which was kept at −20° C. The RT reaction buffer (125 μl 1M EGTA, 125 μl dH20, 110 μl 10% SDS, 50 μl 1M Tris (pH 7.4), 50 μl 1M DTT, and 40 M1 1M MgCL2) was prepared fresh. The three solutions were then mixed together in a ratio of 2 parts TTP, 1 part polyrA:oligo dT, and 1 part buffer. Ten μl of this reaction mixture was then placed in a round bottom micro-liter plate, and 15 ul of virus-containing supematant was added. The plate was incubated at 37° C. in a water bath with a solid support for 60 minutes. Following the reaction, the volume was spotted onto pieces of DE81 paper, washed 5 times for 5 minutes each in a 5% sodium phosphate buffer, 2 times for 1 minute in distilled water, 2 times for 1 minute each in 70% ethanol, and then dried. Opti-Fluor 0 was then added to each sample and incorporated radioactivity was quantified using a scintillation counter.

HIV-1 [2] = settings: for antiviral activity (in words): pooled data of Table 1
[3] = XTT viability (TC50) in PBMC assay; settings: human, PHA-blasted PBMCs
Experimental: (§1) XTT Staining for Viability. Absence of toxicity was assessed by reduction of 2,3-bis(2-methoxy-4-nitro-5-sulfophenyl)-5-[(phenylamino)carbonyl]2H-tetrazolium hydroxide (XXT). 50 μl of a solution containing 1 mg/ml XTT and […] phenazine methanesulfate (PMS) was added per well, and the plate was incubated for 4 hours at 37° C. Adhesive plate sealers were used in place of the lids so that the sealed plates could be inverted several times to mix the soluble reaction product. Following this incubation, the plates were read spectrophotometrically at 450 nm to assess the degree of reduction product.

Monocyte/macrophage = assay: XTT viability (TC50) in monocyte/macrophage assay; settings: for CC50: read-out: TC50 (50% cytotoxicity), column head blank
Experimental: Monocyte Isolation and Culture.
as §1

[4] = test system: HIV in latently infected U1 cells; assay: TNF induced U1 cells (RT), latently infected cells; format: cell-based
U1 cells = assay: XTT viability (TC50) in TNF induced U1 cells; format: cell-based
From the text: Latently Infected Cells. […] PBMC Isolation and Blasting.
XTT Staining for Viability.

HIV-1 [5] = assay: microbe, parasite or virus in culture; settings: Human immunodeficiency virus 1, read-out: IC50 (50% inhibition of virus replication)
Experimental: (§8) Monocyte Isolation and Culture. Peripheral blood monocytes (PBM) were obtained from healthy HIV- and hepatitis-negative donors by ficoll hypaque purification (optionally using recombinant IFNγ. After 7 days, the cultures were washed to remove non adherent cells, and test compounds were added followed by HIV-1. Cultures were washed a final time by media removal 24 hours post infection, fresh test compound was added, and the cultures continued for an additional seven days. Virus replication was then measured by expression of supernatant p24 antigen by commercially available ELISA assays. AZT was used as a positive control run in parallel with each determination.
(§9) Analysis of p24. Viral protein production (p24) was assessed by standard ELISA.

PBMC = assay: XTT viability (TC50) in PBMC assay; settings: PBMC, XTT; for CC50: read-out: TC50 (50% cytotoxicity)
Experimental: as §1

CB2 receptor = CB2 receptor (Homo sapiens, UniProt P34972); settings: cited from earlier work; for Ki: CB2 receptor; for Ki-CB1/Ki-CB2 ratio: selectivity CB1 versus CB2
SNB-7 (CNS) = assay: Antineoplastic assessment, SRB assay, SNB-7; format: cell-based; settings: read-out: IC50 Molar Values
Experimental: (§2) Cell Lines. Cell lines indicated in table 2 were propagated under sterile conditions in RPMI 1640 or DMEM with 10% fetal calf serum, 2 mM L-glutamine, and sodium bicarbonate (“complete medium”) and incubated at 37° C. 5% CO2 and 95% humidity. Each cell line was subcultured once or twice weekly, and they were periodically screened for mycoplama contamination (positive cultures were cured over three passages with antibiotic). Only cultures free of mycoplasma were used for antineoplastic assessment. Antineoplastic Assessment. Cells from each cell line were harvested, pelleted to remove the media, and then suspended in fresh complete medium. The cell count was determined and viability was measured with propidium iodide staining. The cells were adjusted with complete medium to a density of 5×10^3 cells/ml. […]
(§3) Following acclamation, the compounds indicated in table 2 were diluted in complete medium. […] Each culture plate contains a cell control (8 wells, mock treated with complete medium), a medium control (7 wells with medium used to subtract out signal generated by media conditions), a solvent control (8 wells), and an air blank (1 well) for calibrating the plate reader. […]
(§4) Five days after treatment, the cells were analyzed for antineoplastic effects using the SRB assay to calculate IC50 for each treatment.

CAKI-1 (renal) = assay: Antineoplastic assessment, SRB assay, CAKI-1; format: cell-based; settings: read-out: IC50 Molar Values
Experimental: as §2, §3, §4

DLO-1 (colon) = assay: Antineoplastic assessment, SRB assay, DLO-1; format: cell-based; settings: read-out: IC50 Molar Values
Experimental: as §2, §3, §4

PC-3 (prostate) = assay: Antineoplastic assessment, SRB assay, PC-3; format: cell-based; settings: read-out: IC50 Molar Values
Experimental: as §2, §3, §4

ZR-75-1 (mammary) = assay: Antineoplastic assessment, SRB assay, ZR-75-1; format: cell-based; settings: five days, read-out: IC50 Molar Values
Experimental: as §2, §3, §4

HIV-1 [6] = settings: PBMC, HIV-1, RT activity, 7 days; for IC50: read-out: IC50 (50% inhibition of virus replication)
Experimental: as §5, §6, §7

HIV-1 [7] = settings: monocyte/macrophage, HIV-1, p24 ELISA; for IC50: read-out: IC50 (50% inhibition of virus replication)
Experimental: as §8, §9

six cell lines = assay: Antineoplastic assessment, SRB assay, summary over six cell lines; format: cell-based; settings: 120 h, read-out: IC50 in six cell lines
Experimental: as §2, §3, §4

NCI-H23 (lung) = assay: Antineoplastic assessment, SRB assay, NCI-H23; format: cell-based; settings: Homo sapiens, NCI-H23, 120 h, read-out: IC50 Molar Values
Experimental: as §2, §3, §4

[8] = Human immunodeficiency virus 1, read-out: IC50 (50% inhibition of virus replication)

Chain of CB2 receptor (P34972 whole entry): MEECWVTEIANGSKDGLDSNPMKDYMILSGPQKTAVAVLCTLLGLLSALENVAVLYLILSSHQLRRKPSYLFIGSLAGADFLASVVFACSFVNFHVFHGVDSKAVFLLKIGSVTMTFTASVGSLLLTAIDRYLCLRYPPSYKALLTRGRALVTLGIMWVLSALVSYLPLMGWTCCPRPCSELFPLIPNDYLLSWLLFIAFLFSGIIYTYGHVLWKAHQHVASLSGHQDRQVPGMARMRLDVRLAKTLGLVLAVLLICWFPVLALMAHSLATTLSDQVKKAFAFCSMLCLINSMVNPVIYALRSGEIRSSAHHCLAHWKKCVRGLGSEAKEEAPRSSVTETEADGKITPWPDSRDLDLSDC

## COc1cc(C(C)(C)CCCC(C)C)cc(OC)c1O [4-(1,1,5-trimethylhexyl)-2,6-dimethoxy phenol]
HIV-1 [1]
  IC50: 15.8 µM
HIV-1 [2]
  antiviral activity (in words): moderate antiviral activity
[3]
  CC50 at 7 days: 50.9 µM

## C=C(C)[C@@H]1CCC(C)=C[C@H]1c1c(O)cc(CCCCC)cc1O [Cannabidiol, reference compound]
HIV-1 [1]
  IC50: 1.52 mg/L
Monocyte/macrophage
  TC50 (50% cytotoxicity), column head blank: 22.87 µg/mL (≈ 72.7 µM)
[4]; [8]
  IC50: 2.76 mg/L
U1 cells
  TC50 (50% cytotoxicity): 7.8 µg/mL (≈ 24.8 µM)
HIV-1 [5]
  IC50: 8.18 mg/L (≈ 26 µM)
HIV-1 [2]
  antiviral activity (in words): moderate antiviral activity
PBMC
  TC50 (50% cytotoxicity): 7.76 µg/mL (≈ 24.7 µM)

## C=C1CC[C@@H]2[C@@H](C1)c1c(OC)cc(C(C)(C)CCCCCC)cc1OC2(C)C [Example L759656]
CB2 receptor
  Ki: 0.0118 ± 0.0025 µM
  Ki-CB1/Ki-CB2 ratio: 414.24

## CCCCCc1cc(O)cc(O)c1 [Olivitol]
SNB-7 (CNS); SNB-7 (CNS), SRB, five days
  IC50: 220 µM
CAKI-1 (renal); CAKI-1 (renal), SRB, five days
  IC50: 220 µM
Monocyte/macrophage
  CC50: 75.9 µM
DLO-1 (colon); DLO-1 (colon), SRB, five days
  IC50: 230 µM
PC-3 (prostate); PC-3 (prostate), SRB, five days
  IC50: 200 µM
[4]; read-out: IC50 (50% inhibition of virus replication)
  IC50: 22.5 µM
U1 cells; read-out: TC50 (50% cytotoxicity)
  CC50: 77.5 µM
ZR-75-1 (mammary)
  IC50: 200 µM
HIV-1 [6]
  IC50: 16.9 µM
HIV-1 [7]
  IC50: 63.7 µM
HIV-1 [2]; PBMCs and TNFa induced U1 cells versus monocytes/macrophages or uninduced U1 cells
  antiviral activity compared between cell systems (in words): more pronounced in the PBMCs and TNFa induced U1 cells than in monocytes/macrophages or uninduced U1 cells
HIV-1 [2]
  antiviral activity (in words): moderate antiviral activity
PBMC
  CC50: > 100 µM

## Cc1cc(O)cc(O)c1 [Orcinol]
HIV-1 [1]
  IC50: > 200 µM
[3]
  CC50 at 7 days: > 200 µM

## CCO [EtOH]
Monocyte/macrophage
  TC50 (50% cytotoxicity), column head blank: >1%
[4]
  IC50 (50% inhibition of virus replication): >0.1%
U1 cells
  TC50 (50% cytotoxicity): >0.1%
HIV-1 [6]
  IC50 (50% inhibition of virus replication): >0.1%
HIV-1 [7]
  IC50 (50% inhibition of virus replication): 0.06%
PBMC
  TC50 (50% cytotoxicity): >0.1%

## CCCCCc1cc(O)c2c(c1)OC(C)(C)[C@@H]1CCC(C)=C[C@@H]21 [A9 tetrahydrocannabinaol, reference compound]
Monocyte/macrophage
  TC50 (50% cytotoxicity), column head blank: >0.1 µg/mL
[4]
  IC50 (50% inhibition of virus replication): 0.06 µg/mL
U1 cells
  TC50 (50% cytotoxicity): 0.088 µg/mL (≈ 0.28 µM)
HIV-1 [6]
  IC50 (50% inhibition of virus replication): 0.07 µg/mL
HIV-1 [7]
  IC50 (50% inhibition of virus replication): >0.1 µg/mL
PBMC
  TC50 (50% cytotoxicity): >0.1 µg/mL

## COc1cc(OC)cc(C(C)(C)CCCC(C)C)c1 [4-(1,1,5-trimethylhexyl)-2,6-dimethoxybenzene]
HIV-1 [1]
  IC50: > 200 µM
[3]
  CC50 at 7 days: > 200 µM

## CCCCCn1cc(C(=O)c2cccc3ccccc23)c2ccccc21 [JWH-018]
CB2 receptor
  Ki: 0.00294 ± 0.00265 µM
  Ki-CB1/Ki-CB2 ratio: 3.23

## CC(C)CCCC(C)(C)c1cc(O)cc(O)c1
HIV-1 [1]
  IC50: 14.8 µM
Six cell lines
  IC50: 77 to 95 µM
SNB-7 (CNS); Homo sapiens, SNB-7, 120 h
  IC50: 95 µM
CAKI-1 (renal); Homo sapiens, CAKI-1, 120 h
  IC50: 93 µM
DLO-1 (colon); 120 h
  IC50: 90 µM
PC-3 (prostate); 120 h
  IC50: 84 µM
NCI-H23 (lung)
  IC50: 77 µM
other
  melting point: 95 to 96 °C
HIV-1 [2]
  antiviral activity (in words): moderate antiviral activity
[3]
  CC50 at 7 days: 44.6 µM

## CCCCCc1cc(O)c2c(c1)OC(C)(C)C1CCC(C(=O)O)=CC21 (centres unmarked)
Monocyte/macrophage
  TC50 (50% cytotoxicity), column head blank: 76.73 µg/mL (≈ 223 µM)
[4]
  IC50 (50% inhibition of virus replication): 6.69 µg/mL
U1 cells
  TC50 (50% cytotoxicity): 23.71 µg/mL (≈ 68.8 µM)
HIV-1 [6]
  IC50 (50% inhibition of virus replication): 39.09 µg/mL
HIV-1 [7]
  IC50 (50% inhibition of virus replication): 7.79 µg/mL
HIV-1 [2]
  antiviral activity (in words): moderate antiviral activity
PBMC
  TC50 (50% cytotoxicity): 71.1 µg/mL (≈ 206 µM)

## Cc1cn([C@H]2C[C@H](N=[N+]=[N-])[C@@H](CO)O2)c(=O)[nH]c1=O [AZT, reference compound]
Monocyte/macrophage
  CC50: > 4 µM

## Nc1ccn([C@H]2CC[C@@H](CO)O2)c(=O)n1 [DdC, reference compound]
Monocyte/macrophage
  CC50: > 10 µM
HIV-1 [6]
  IC50: 0.0876 µM
HIV-1 [7]
  IC50: 0.0028 µM
PBMC
  CC50: > 10 µM

## COc1cc(O)cc(C(C)(C)CCCC(C)C)c1 [3-methoxy-5-(1,1,5-trimethylhexyl)phenol]
HIV-1 [1]
  IC50: 39.9 µM
[3]
  CC50 at 7 days: 46.4 µM

## CCCCCc1cc(O)c2c(c1)OC(C)(C)c1ccc(C)cc1-2 [Cannabinol]
HIV-1 [1]
  IC50: 6.91 mg/L
Monocyte/macrophage
  TC50 (50% cytotoxicity), column head blank: 13.07 µg/mL (≈ 42.1 µM)
[4]; [8]
  IC50: 5.14 mg/L
U1 cells
  TC50 (50% cytotoxicity): 5.26 µg/mL (≈ 16.9 µM)
HIV-1 [5]
  IC50: 7.7 mg/L (≈ 24.8 µM)
PBMC
  TC50 (50% cytotoxicity): 7.66 µg/mL (≈ 24.7 µM)

## CCCCCCC(C)(C)c1cc(OC)c2c(c1)OC(C)(C)[C@@H]1CC=C(C)C[C@@H]21 [Example L759633]
CB2 receptor
  Ki: 0.0064 ± 0.0022 µM
  Ki-CB1/Ki-CB2 ratio: 162.97

## Oc1cccc(O)c1 [Resorciol]
HIV-1 [6]
  IC50: > 200 µM
PBMC
  CC50: > 200 µM
